Measured values reported in patent US6429212B1, “Medicinal composition” (Ishihara Sangyo Kaisha Ltd., priority 1996, dated 2002).

Legend:
[1] = tested on: TNF-α production or secretion by human leukemia cells HL-60 (Okadaic acid stimulation); test: Influence on TNF-α production or secretion by HL-60 cells stimulated by Okadaic acid (ELISA of supernatant); type: cell-based; conditions: for amount of TNF-α in the supernatant, Okadaic acid alone = 100%: HL-60, Okadaic acid 50 nM, 16 hours (Table 8); for amount of TNF-α, Okadaic acid alone = 100%: HL-60, Okadaic acid stimulation (Table 14)
Procedure: (§1) Human leukemia cells HL-60 produce tumor necrosis factor (TNF-α) by stimulation of Okadaic acid (9,10-Deepithio-9,10-didehydroacanthifolicin) or 12O-tetradecanoyl phorbol-13-acetate (TPA). Influences of the compounds of the present invention to production or secretion of TNF-α by them were observed.
Human leukemia cells (HL-60) were cultured by using a RPMI 1640 culture medium (including 5% fetal bovine serum), in a carbonic acid gas incubator (5% CO2, humidified, 37° C.). Then, the cells were pre-cultured in a RPMI 1640 culture medium (including 10% fetal bovine serum). Okadaic acid was added thereto, so that the final concentration was 50 nM based on the HL-60 cells (5×10^5 cells/ml) in an exponentially growing stage. Then, the compound of the present invention was added thereto so that the predetermined concentration could be obtained, to prepare a cell suspension, which was then cultured in a carbonic acid gas incubator (5% CO2, humidified, 37° C.). In this culture, a multiplate having 24 holes (produced by Corning) was used, and the cell suspension was injected in an amount of 0.5 ml per hole, to culture the cells.
16 hours after the culture started, the cells were removed by centrifugation (1000-2000 rpm×10 min), and the amount of TNF-α in the supernatant was measured in accordance with the method of Amersham, by using human TNF-α ELISA system (produced by Amersham).
The values in the Table are values obtained by supposing the amount of TNF-αin the supernatant of the culture medium when treated only with Okadaic acid having a final concentration of 50 nM, 100%.
Influences of the compounds of the present invention to production or secretion of TNF-α by Okadaic acid stimulation were observed, in the same manner as in Test Example 1.

[2] = tested on: TNF-α production or secretion by human leukemia cells HL-60 (TPA stimulation); test: Influence on TNF-α production or secretion by HL-60 cells stimulated by TPA (ELISA of supernatant); type: cell-based; conditions: HL-60, TPA 10 nM; for amount of TNF-α in the supernatant, TPA alone = 100%: 16 hours (Table 9); for Amount of TNF (%), TPA alone = 100%: compound 10 μM, 16 hours (Test Example 3)
Procedure: as §1
The same operation was carried out as in Test Example 1, except that TPA (produced by Sigma) having a final concentration of 10 nM was used, instead of Okadaic acid having a final concentration of 50 nM.
The values in the Table are values obtained by supposing the amount of TNF-α in the supernatant of the culture medium when treated only with TPA having a final concentration of 10 nM, 100%.
Human leukemia cells (HL-60) produce tumor necrosis factor (TNF-α) by stimulation of 12O-tetradecanoyl phorbol-13-acetate (TPA). The influences of the compounds of the present invention to production of TNF-αby it were observed.
Human leukemia cells (HL-60) were cultured by using a RPMI 1640 culture medium (including 5% fetal bovine serum), in a carbonic acid gas incubator (5% CO2, humidified, 37° C.). Then, the cells were pre-cultured in a RPMI 1640 culture medium (including 10% fetal bovine serum). TPA was added thereto, so that the final concentration was 10 nM based on the HL-60 cells (5×10^5 cells/ml) in an exponentially growing stage. Then, the compound of the present invention was added thereto so that the predetermined concentration could be obtained, to prepare a cell suspension, which was then cultured in a carbonic gas incubator (5% CO2, humidified, 37° C.). In this culture, a multiplate having 24 holes (produced by Corning) was used, and the cell suspension was injected in an amount of 0.5 ml per hole, to culture the cells.
16 hours after the culture started, the cells were removed by centrifugation(1000-2000 rpm×10 min), and the amount of TNF-α in the supernatant was measured in accordance with the method of Amersham, by using human TNF-α ELISA system (produced by Amersham).
The values are obtained by supposing the amount of TNF-α when treated only with TPA having a final concentration of 10 nM, 100%.
The influences of the compounds of the present invention to production or secretion of TNF-α by TPA stimulation were observed, in the same manner as in Test Example 2.

[3] = tested on: angiogenesis under skin of mice; test: Angiogenesis under skin of mice (b-FGF matrigel, amount of hemoglobin); type: in vivo, BALB/c male mice; parameters: key to Amount of hemoglobin, value in parentheses (Control = 100): % of control (control = 100), hemoglobin per matrigel
Procedure: By subcutaneously injecting a mixture having recombinant human fibroblast growth factor-basic added to matrigel, to the back of a mice, angiogenesis occurs under skin of the mice. By measuring the amount of hemoglobin in matrigel, angiogenesis can be quantified. Influences of the compounds of the present invention to angiogenesis were observed.
Matrigel (trademark; basement membrane matrix, phenol is not included, purchased from Becton Dickinson Labware) was added to Dulbecco's modified Eagle's medium (purchased from Sigma), so that the concentration was 9 mg/ml. Recombinant Human Fibroblast Growth Factor-basic (b-FGF, produced by Intergen) was added thereto, so that the concentration was 2 μg/700 μl. The mixture was subcutaneously injected to 6-week BALB/c male mice (Charles River Japan Inc.) in an amount of 700 μl per mouse. Everyday after matrigel injection, a suspension having the compound of the present invention added to 0.8% Tween 80 (purchased from Nacalai Tesque), so that the predetermined concentration could be obtained, was intraperitoneally injected to the mice. 8 days after matrigel injection, matrigel was taken out from the mice, which was then placed in 200 μl of 1% NH4OH at room temperature for 4 hours, to extract hemoglobin. The extraction and matrigel together were subjected to centrifugal separation (10000 rpm, 5 min). 100 μl of the obtained supernatant and 500 μl of Drabkin's reagent (purchased from Sigma) were mixed and left at room temperature. After left more than 15 minutes, absorbance of the supernatant at a wavelength of 540 nm was measured by using a spectrophotometer SPECTRA max 250 (produced by Molecular Devices). The amount of hemoglobin in the supernatant was obtained from the standard curve prepared by using hemoglobin standard (purchased from Sigma), and the amount of hemoglobin per matrigel obtained from a mouse was calculated.
The amount of the hemoglobin in each treatment fraction was corrected by the amount of hemoglobin wherein matrigel having no b-FGF added was injected to the mice, and 0.8% Tween 80 as a solvent alone was injected everyday.
Influences of the compounds of the present invention to angiogenesis under skin of mice were observed, in the same manner as in Test Example 8.

[4] = 5 mg/kg, experiment (b) (Table 15)
[5] = 5 mg/kg, experiment (b), Control 83.3 (Table 15)

| Structure (SMILES) | amount of TNF-α in the supernatant, Okadaic acid alone = 100% ([1]; compound 1 nM) [%] | amount of TNF-α in the supernatant, Okadaic acid alone = 100% ([1]; compound 10 nM) [%] | amount of TNF-α in the supernatant, Okadaic acid alone = 100% ([1]; compound 100 nM) [%] | amount of TNF-α in the supernatant, Okadaic acid alone = 100% ([1]; compound 0.3 μM) [%] | amount of TNF-α in the supernatant, TPA alone = 100% ([2]; compound 10 nM) [%] | amount of TNF-α in the supernatant, TPA alone = 100% ([2]; compound 100 nM) [%] | amount of TNF-α in the supernatant, TPA alone = 100% ([2]; compound 0.3 μM) [%] | Amount of hemoglobin, value in parentheses (Control = 100) [3, 4] | Amount of hemoglobin [3, 5] [μg/gel] | further results |
| --- | --- | --- | --- | --- | --- | --- | --- | --- | --- | --- |
| C[C@@H](c1ccccc1)N1C(=O)c2c(F)c(F)c(F)c(F)c2C1=O [Compound 17, (S)-2-(1-phenylethyl)-4,5,6,7-tetrafluoro-1H-isoindole-1,3-dione] | 100 | 99 | 95 | 70 | 102 | 120 | 143 | 31 | 25.7 | Amount of hemoglobin, value in parentheses (Control = 100) ([3]; 1 mg/kg, experiment (b) (Table 15)): 21; Amount of hemoglobin ([3]; 1 mg/kg, experiment (b), Control 83.3 (Table 15)): 17.3 μg/gel |
| C[C@H](c1ccccc1)N1C(=O)c2c(F)c(F)c(F)c(F)c2C1=O [Compound 18, (R)-2-(1-phenylethyl)-4,5,6,7-tetrafluoro-1H-isoindole-1,3-dione] | 97 | 55 | 8 | 2 | 100 | 101 | 97 | 78 | 65.1 |  |
| C[C@@H](c1cccc2ccccc12)N1C(=O)c2c(F)c(F)c(F)c(F)c2C1=O [Compound 49, (S)-2-(1-naphthylethyl)-4,5,6,7-tetrafluoro-1H-isoindole-1,3-dione] | 100 | 102 | 100 | 101 | 100 | 99 | 101 |  |  |  |
| C[C@H](c1cccc2ccccc12)N1C(=O)c2c(F)c(F)c(F)c(F)c2C1=O [Compound 50, (R)-2-(1-naphthylethyl)-4,5,6,7-tetrafluoro-1H-isoindole-1,3-dione] | 100 | 88 | 43 | 2 | 100 | 100 | 100 | 79 | 65.4 |  |
| C[C@@H](C1CCCCC1)N1C(=O)c2c(F)c(F)c(F)c(F)c2C1=O [Compound 68, (S)-2-(1-cyclohexylethyl)-4,5,6,7-tetrafluoro-1H-isoindole-1,3-dione] | 102 | 101 | 96 | 65 | 103 | 115 | 124 |  |  |  |
| O=C1c2ccccc2C(=O)N1c1ccccc1 [Compound 201, N-phenylphthalimide] |  |  |  |  |  |  |  |  |  | amount of TNF-α, Okadaic acid alone = 100% ([1]; compound 1 μM): 100%; amount of TNF-α, Okadaic acid alone = 100% ([1]; compound 3 μM): 100%; amount of TNF-α, Okadaic acid alone = 100% ([1]; compound 10 μM): 82%; amount of TNF-α, Okadaic acid alone = 100% ([1]; compound 30 μM): 60%; amount of TNF-α, Okadaic acid alone = 100% ([1]; compound 100 μM): 41% |
| CC(C)c1cccc(C(C)C)c1N1C(=O)c2ccccc2C1=O [Compound 202, N-(2.6-diisopropylphenyl)-phthalimide] |  |  |  |  |  |  |  |  |  | amount of TNF-α, Okadaic acid alone = 100% ([1]; compound 1 μM): 100%; amount of TNF-α, Okadaic acid alone = 100% ([1]; compound 3 μM): 80%; amount of TNF-α, Okadaic acid alone = 100% ([1]; compound 10 μM): 43%; amount of TNF-α, Okadaic acid alone = 100% ([1]; compound 30 μM): 20%; amount of TNF-α, Okadaic acid alone = 100% ([1]; compound 100 μM): 9%; Amount of hemoglobin, value in parentheses (Control = 100) ([3]; 10 mg/kg, experiment (a) (Table 15)): 77; Amount of hemoglobin ([3]; 10 mg/kg, experiment (a), Control 307.3 (Table 15)): 235.4 μg/gel; Amount of hemoglobin, value in parentheses (Control = 100) ([3]; 100 mg/kg, experiment (a) (Table 15)): 50; Amount of hemoglobin ([3]; 100 mg/kg, experiment (a), Control 307.3 (Table 15)): 152.5 μg/gel |
| CC(C)c1cccc(C(C)C)c1N1C(=O)c2c(F)c(F)c(F)c(F)c2C1=O [Compound 203, N-(2,6-diisopropylphenyl)-4,5,6,7-tetra-fluoro-phthalimide] |  |  |  |  |  |  |  |  |  | amount of TNF-α, Okadaic acid alone = 100% ([1]; compound 1 nM): 100%; amount of TNF-α, Okadaic acid alone = 100% ([1]; compound 3 nM): 93%; amount of TNF-α, Okadaic acid alone = 100% ([1]; compound 10 nM): 75%; amount of TNF-α, Okadaic acid alone = 100% ([1]; compound 30 nM): 42%; amount of TNF-α, Okadaic acid alone = 100% ([1]; compound 100 nM): 0%; Amount of hemoglobin, value in parentheses (Control = 100) ([3]; 1 mg/kg, experiment (a) (Table 15)): 69; Amount of hemoglobin ([3]; 1 mg/kg, experiment (a), Control 307.3 (Table 15)): 211.4 μg/gel |
| CC(C)c1cccc(C(C)C)c1N1C(=O)Cc2ccccc2C1=O [Compound A-3, N-(2.6-diisopropylphenyl)-homophthalimide] |  |  |  |  |  |  |  |  |  | Amount of TNF (%), TPA alone = 100% [2]: 258% |
| CC(C)c1cccc(C(C)C)c1N1C(=O)c2cc3ccccc3cc2C1=O [Compound B-3, N-(2,6-diisopropylphenyl) 2,3-naphthalimide] |  |  |  |  |  |  |  |  |  | Amount of TNF (%), TPA alone = 100% [2]: 134% |
